Assays:
RAW macrophages = assay: Cell-based NO2- scavenging activity (Griess assay, RAW macrophages); conditions: for Actual % inhibition of ROS / % inhibition of ROS in comparison to Oil Palm phenolics (± S.E): Table 2; for Actual % inhibition of ROS: each component added at the concentration present in 800 μg/mL OPP; for % inhibition of ROS in comparison to Oil Palm phenolics (± S.E): relative to OPP 800 μg/mL = 100; for Enhancement of anti-inflammatory and anti-oxidative activity of other components / Inhibitory action / nitrite scavenging activity (in words): cell-based Griess assay
Experimental: FIG. 1 is a graphical representation of the biological enhancement of chemical combination of major compounds of Oil Palm phenolics in cell-based NO2^− scavenging activity (Griess assay, RAW macrophages, Mean±SE).
FIG. 1 and Table 2 show the synergistic effect of the composition in cell based nitrite scavenging activity.
For the study, PH435 composition was prepared according to the concentration present in 800 μg/mL of Oil Palm Phenolics.

Red blood cells = assay: Cell-based antioxidant protection in erythrocytes (CAP-e assay), ROS scavenging; conditions: for Actual % inhibition of ROS: each component added at the concentration present in 10 mg/mL OPP; for % inhibition of ROS in comparison to Oil Palm phenolics (±S.E.): relative to OPP 10 mg/mL = 100; for Effect on reducing ROS / inhibitory action (in words): RBC cells
Excerpt: H2O2 Measurement (Cell-Based Antioxidant Protection in Erythrocytes CAP-e Assay)
Red blood cells can be used as a cellular model to quantify reactive oxygen species (ROS). As these cells lose their nuclei at the erythroblast stage, they cannot perform transcription and translation for bringing about genetic and protein level changes.

[1] = Nitrite measurement (sodium nitroprusside, SNP assay), chemical system; conditions: for Inhibition of the nitrite ion (in words): chemical system
Excerpt: Nitrite Measurement (Sodium Nitroprusside—SNP Assay)
SNP in aqueous solution at physiological pH spontaneously generates nitric oxide, which interacts with oxygen to produce a nitrite ion that can be estimated by using griess reagent.

[2] = Chemical-based ORAC assay
[3] = system: Granulocytes/polymorphonuclear (PMN) cells; assay: H2O2 measurement, cell-based antioxidant protection in granulocytes/polymorphonuclear (PMN) cells assay
Excerpt: H2O2 Measurement (Cell-Based Antioxidant Protection in Granulocytesipolymorphonuclear—PMN Cells Assay)

Compound | Actual % inhibition of ROS (RAW macrophages) | % inhibition of ROS in comparison to Oil Palm phenolics (± S.E) (RAW macrophages) | Actual % inhibition of ROS (Red blood cells) | % inhibition of ROS in comparison to Oil Palm phenolics (±S.E.) (Red blood cells) | further results
O=C(O)c1ccc(O)c(O)c1 [Protocatechuic acid] | 8.6% | 13 (±0.7) % |  |  | 
O=C(/C=C/c1ccc(O)c(O)c1)O[C@@H]1CC(C(=O)O)=C[C@@H](O)[C@H]1O [5-Caffeoylshikimic acid, 5-caffeoylshikimic acid] | 8.8% | 13.4(±3.7) % |  |  | 
caffeoylshikimic acid |  |  | 25.9% | 35.2(±0.1) % | 
O=C(O)C1=CC(=O)[C@@H](O)[C@H](O)C1 [3-dehydroshikimic acid] |  |  | 9.9% | 13.4 (±0.05) % | Effect on reducing ROS / inhibitory action (in words) (Red blood cells): shows inhibitory action; Synergy / enhancement effect of the combination on ROS inhibition (Red blood cells; chemical combination versus mathematical sum): enhancement effect could be seen; Enhancement of anti-inflammatory and anti-oxidative activity of other components (RAW macrophages): enhancement effect could be seen; Inhibitory action / nitrite scavenging activity (in words) (RAW macrophages): shows inhibitory action; Inhibition of the nitrite ion (in words) [1]: low inhibition; Inhibition of the nitrite ion (in words) ([1]; listed as 3-dehydroshikirnic acid): shows inhibitory action; Enhancement effect [2]: enhancement effect could be seen
O=C(O)c1ccc(O)cc1 [p-hydoxybenzoic acid] | 11.4% | 17.3(±2.8) % | 22.5% | 30.6 (±0.2) % | 
O=C(O)C1=C[C@@H](O)[C@@H](O)[C@H](O)C1 [Shikimic acid] | 3.4% | 5.2 (±0.7) % | -Not detected- | -Not detected- | Enhancement of anti-inflammatory and anti-oxidative activity of other components [3]: able to enhance; Inhibitory action (in words) [3]: shows inhibitory action; Effect on reducing ROS / inhibitory action (in words) (Red blood cells): shows no activity; Effect on reducing ROS / inhibitory action (in words) (Red blood cells; listed as shikimic acid): does not show any effect; Enhancement of anti-inflammatory and anti-oxidative activity of other components (RAW macrophages): able to enhance; Inhibitory action / nitrite scavenging activity (in words) (RAW macrophages): shows inhibitory action; Enhancement of nitrite inhibition when added with other components ([1]; added along with p-hydroxybenzoic acid): does not show any enhancement; Inhibition of the nitrite ion (in words) [1]: shows inhibitory action; Inhibition of the nitrite ion (in words) ([1]; listed as shikimic acid): low inhibition
O=C(/C=C/c1ccc(O)c(O)c1)O[C@@H]1C=C(C(=O)O)C[C@@H](O)[C@@H]1O [3-Caffeoylshikimic acid, 3-caffeoylshikimic acid] | 12.3% | 18.6(±2.3) % |  |  | 
O=C(/C=C/c1ccc(O)c(O)c1)O[C@@H]1[C@H](O)C=C(C(=O)O)C[C@H]1O [4-Caffeoylshikimic acid, 4-caffeoylshikimic acid] | 8.4% | 12.7(±2.5) % |  |  | 
